The record followed here is patent US12655148B2, “FXR small-molecule agonist, and preparation method therefor and use thereof” (Shanghai Institute of Materia Medica, Chinese Academy of …, priority 2020, dated 2026).

Each structure is given as a SMILES string. Read-outs that look alike come from different tables or passages of the source.

The target in experiment [1] is T1, recombinant GST-FXR fusion protein (Homo sapiens, UniProt Q96RI1).
T1 sequence (Q96RI1 1-486): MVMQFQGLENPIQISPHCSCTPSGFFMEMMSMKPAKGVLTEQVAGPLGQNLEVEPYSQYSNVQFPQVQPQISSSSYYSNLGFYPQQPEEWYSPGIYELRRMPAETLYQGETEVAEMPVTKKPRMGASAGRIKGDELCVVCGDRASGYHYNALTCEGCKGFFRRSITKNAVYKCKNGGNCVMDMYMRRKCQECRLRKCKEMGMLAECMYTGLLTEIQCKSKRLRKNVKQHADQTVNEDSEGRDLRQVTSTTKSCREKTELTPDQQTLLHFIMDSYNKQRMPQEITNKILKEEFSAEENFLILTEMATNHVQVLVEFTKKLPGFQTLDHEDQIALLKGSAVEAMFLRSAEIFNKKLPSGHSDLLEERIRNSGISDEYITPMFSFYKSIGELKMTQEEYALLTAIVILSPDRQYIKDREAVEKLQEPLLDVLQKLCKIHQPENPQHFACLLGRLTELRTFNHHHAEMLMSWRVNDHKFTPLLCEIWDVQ
Briefly: FXR activity at the molecular level (AlphaScreen). The format is biochemical. On the procedure: Test Method for FXR Activity at the Molecular Level
FXR activity was determined using recombinant GST-FXR fusion protein by AlphaScreen detection reagent from PerkinElmer. The reaction in this method was carried out in a 384-well plate, and the total reaction volume was 15 μL. A mixture of protein, agonist, co-regulatory factor, AlphaScreen® acceptor beads and AlphaScreen® donor beads was reacted in a buffer containing Tris-HCl 50 mM (pH7.4), 50 mM NaCl, BSA 0.1%, and 1 mM DTT. The FXR activity was reflected by the fluorescence signal intensity at 570 nm wavelength detected by the Envision fluorescence detector.

Another experiment has as its target T2, FXR receptor (Homo sapiens, UniProt Q96RI1).
T2 construct: expressed in transfected cells; host or cells: 293T cells
T2 sequence (Q96RI1 1-486): T1 sequence (Q96RI1 1-486)
Briefly: FXR activity at the cellular level (FXRE luciferase reporter in 293T cells). The format is cell-based. On the procedure: The cells were cultured for 24 hours to ensure plasmid expression. Then the FXR receptor agonists to be tested were added and incubated for 18 hours. The fluorescence intensity was detected using a luciferase kit (steady-Glo Luciferase Assay system) to reflect the compound's activation efficiency on the FXR receptor.
In general terms: A reporter such as luciferase makes a cellular process visible.

Where [2] appears, read: AlphaScreen, GST-FXR, read-out: FXR activity at the molecular level EC50.
The mark [3] stands for this setting: 293T cells, luciferase reporter.
The mark [4] stands for this setting: 293T cells, luciferase reporter, read-out: FXR activity at the celluar level EC50.

With `O=c1[nH]c(-c2ccc(N3[C@@H]4CC[C@H]3C[C@@H](OCc3c(-c5ccccc5C(F)(F)F)noc3C3CC3)C4)nc2)no1` [Example 5], the EC50 in experiment [1] (setting [2]) fell in the range of 10 to 100 nM; on FXR receptor (setting [4]), 0.1 to 1 nM. In addition, the “FXR activity at the celluar level Activity relative to OCA (%) 10 μM” value at FXR receptor (setting [3]) was 141%.

In the case of `Cc1ccccc1-c1noc(C2CC2)c1CO[C@H]1C[C@H]2CC[C@@H](C1)N2c1ccc(-c2noc(=O)[nH]2)cn1` [Example 12], the values for the half-maximal effective concentration (EC50) (in experiment [1] (setting [2]); at FXR receptor (setting [4])) were 10 to 100 nM and 1 to 10 nM, respectively. For the same compound, on FXR receptor (setting [3]), the “FXR activity at the celluar level Activity relative to OCA (%) 10 μM” value is given as 105%.

For `O=c1[nH]c(-c2ccc(N3[C@@H]4CC[C@H]3C[C@@H](OCc3c(-c5ccccc5C(F)(F)F)noc3C3CC3)C4)cc2F)no1` [Example 9], the figures for the concentration giving a half-maximal response (EC50) (in experiment [1] (setting [2]); at FXR receptor (setting [4])) were 10 to 100 nM and 0.1 to 1 nM, respectively. Further, the “FXR activity at the celluar level Activity relative to OCA (%) 10 μM” value on FXR receptor (setting [3]) was 102%.

With `O=c1[nH]c(-c2ccc(N3[C@@H]4CC[C@H]3C[C@H](OCc3c(-c5c(Cl)cccc5Cl)noc3C3CC3)C4)cc2)no1` [Example 2], the concentration giving a half-maximal response (EC50) in experiment [1] (setting [2]) is above 1000 nM; at FXR receptor (setting [4]) it was above 100 nM. The “FXR activity at the celluar level Activity relative to OCA (%) 10 μM” value on FXR receptor (setting [3]) was determined as 73%.

For `O=c1[nH]c(-c2ccc(N3[C@@H]4CC[C@H]3C[C@@H](OCc3c(-c5ccccc5OC(F)(F)F)noc3C3CC3)C4)nc2)no1` [Example 6], the figures for the EC50 (in experiment [1] (setting [2]); on FXR receptor (setting [4])) were 10 to 100 nM and 0.1 to 1 nM, respectively. For the same compound, the “FXR activity at the celluar level Activity relative to OCA (%) 10 μM” value at FXR receptor (setting [3]) amounted to 122%.

As to `O=c1[nH]c(-c2ccc(N3[C@@H]4CC[C@H]3C[C@@H](OCc3c(-c5ccccc5OC(F)F)noc3C3CC3)C4)cc2F)no1` [Example 13], the results for the EC50 (in experiment [1] (setting [2]); at FXR receptor (setting [4])) were 10 to 100 nM and 0.1 to 1 nM, respectively. Also, the “FXR activity at the celluar level Activity relative to OCA (%) 10 μM” value at FXR receptor (setting [3]) worked out at 108%.

With `Cc1ccccc1-c1noc(C2CC2)c1CO[C@H]1C[C@H]2CC[C@@H](C1)N2c1ccc(-c2noc(=O)[nH]2)c(F)c1` [Example 14], the EC50 in experiment [1] (setting [2]) is 10 to 100 nM; at FXR receptor (setting [4]) it was 0.1 to 1 nM. Moreover, the “FXR activity at the celluar level Activity relative to OCA (%) 10 μM” value on FXR receptor (setting [3]) was 106%.

As to `O=c1[nH]c(-c2ccc(N3[C@@H]4CC[C@H]3C[C@@H](OCc3c(-c5c(Cl)cccc5Cl)noc3C3CC3)C4)cc2F)no1` [Example 8], the 50% effective concentration (EC50) in experiment [1] (setting [2]) is below 10 nM; at FXR receptor, below 0.1 nM. Also, the “FXR activity at the celluar level Activity relative to OCA (%) 10 μM” value at FXR receptor (setting [3]) is reported as 102%.

For the compound `O=c1[nH]c(-c2ccc(N3[C@@H]4CC[C@H]3C[C@@H](OCc3c(-c5c(Cl)cccc5Cl)noc3C3CC3)C4)cc2)no1` [Example 1], the values for the concentration for a half-maximal effect (EC50) (in experiment [1] (setting [2]); on FXR receptor (setting [4])) were below 10 nM and 1 to 10 nM, respectively. The “difference of activity on FXR at molecular level, endo-compound vs exo-compound” value in experiment [1] (endo- versus exo-compound) is “more than 100 times”. Besides, the “FXR activity at the celluar level Activity relative to OCA (%) 10 μM” value on FXR receptor (setting [3]) was 88%.

With `O=c1[nH]c(-c2ccc(N3[C@@H]4CC[C@H]3C[C@@H](OCc3c(-c5ccccc5OC(F)F)noc3C3CC3)C4)nc2)no1` [Example 11], the values for the EC50 (in experiment [1] (setting [2]); on FXR receptor (setting [4])) were 10 to 100 nM and 1 to 10 nM, respectively. In addition, the “FXR activity at the celluar level Activity relative to OCA (%) 10 μM” value on FXR receptor (setting [3]) is reported as 108%.

With `O=c1[nH]c(-c2ccc(N3[C@@H]4CC[C@H]3C[C@@H](OCc3c(-c5c(F)cccc5F)noc3C3CC3)C4)nc2)no1` [Example 3], the EC50 in experiment [1] (setting [2]) fell in the range of 10 to 100 nM; on FXR receptor (setting [4]), 0.1 to 1 nM. Besides, the “FXR activity at the celluar level Activity relative to OCA (%) 10 μM” value at FXR receptor (setting [3]) was 116%.

`O=c1[nH]c(-c2ccc(N3[C@@H]4CC[C@H]3C[C@@H](OCc3c(-c5c(F)cccc5F)noc3C3CC3)C4)cc2F)no1` [Example 7]: the EC50 is 10 to 100 nM in experiment [1] and 0.1 to 1 nM on FXR receptor. The “FXR activity at the celluar level Activity relative to OCA (%) 10 μM” value at FXR receptor (setting [3]) is recorded as 117%.

As to `O=c1[nH]c(-c2ccc(N3[C@@H]4CC[C@H]3C[C@@H](OCc3c(-c5c(Cl)cccc5Cl)noc3C3CC3)C4)nc2)no1` [Example 4], the results for the concentration giving a half-maximal response (EC50) (in experiment [1] (setting [2]); on FXR receptor (setting [4])) were below 10 nM and below 0.1 nM, respectively. Moreover, on FXR receptor (setting [3]), the “FXR activity at the celluar level Activity relative to OCA (%) 10 μM” value worked out at 103%.

On to `O=c1[nH]c(-c2ccc(N3[C@@H]4CC[C@H]3C[C@@H](OCc3c(-c5ccccc5OC(F)(F)F)noc3C3CC3)C4)cc2F)no1` [Example 10], for which the EC50 was 10 to 100 nM in experiment [1] (setting [2]) and 0.1 to 1 nM on FXR receptor (setting [4]). The “FXR activity at the celluar level Activity relative to OCA (%) 10 μM” value on FXR receptor (setting [3]) came out at 102%.

In general, EC50 refers to the concentration giving half of the maximal effect.
